Values after ≈ are worked out from the molar mass of the structure shown. Each block holds one molecule with its values, some of them ahead of it.
How the values were obtained:
[1] = Solubility test in various oils; assay type: physicochemical; conditions: for solubility at 24 h: oil or lipid, thermodynamic from solid; for solubility at 24 h / Solubility of Tadalafil: room temperature, 24 hours of stirring
Protocol: Dutasteride and tadalafil were measured for solubility in various oils comprising soybean oil, castor oil, polyoxyl 6 apricot kernel oil, propyleneglycol monolaurate, propyleneglycol monocaprylate, glyceryl caprylate/caprate. In a 10-mL vial, 3 mL of an oil was stirred at room temperature with a magnetic bar during which about 100 mg of the main ingredient was added, followed by stirring at 500 rpm or higher. After 24 hours of stirring, centrifugation was carried out and the supernatant thus formed was taken and subjected to liquid chromatography to quantitate the main ingredient dissolved in the oil phase.

[2] = Solubility test according to surfactant; assay type: physicochemical; conditions: for solubility according to surfactants (in words): in PEG 6 glyceryl caprylate/caprate and PEG 8 caprylic/capric glyceride; for solubility at 24 h: organic solvent or mixture, thermodynamic from solid

- solubility at 24 h ([1]; in Castor oil, read-out: Solubility of Dutasteride): 1500 µg/mL (≈ 2.84 mM)
- solubility at 24 h ([1]; in Glyceryl caprylate/caprate, read-out: Solubility of Dutasteride): 14300 µg/mL (≈ 27.1 mM)
- solubility at 24 h ([1]; in Polyoxyl 6 apricot kernel oil, read-out: Solubility of Dutasteride): 2550 µg/mL (≈ 4.82 mM)
- solubility at 24 h ([1]; in Propylene glycol monocaprylate, read-out: Solubility of Dutasteride): 26300 µg/mL (≈ 49.7 mM)
- solubility according to surfactants (in words) [2]: high solubility
- solubility at 24 h ([2]; in PEG 6 glyceryl carpylate/caprate, read-out: Dutasteride Solubility): 3550 µg/mL (≈ 6.72 mM)
- solubility at 24 h ([2]; in PEG 8 caprylic/capric glyceride, read-out: Dutasteride Solubility): 3860 µg/mL (≈ 7.3 mM)
- solubility at 24 h ([2]; in PEG 35 castor oil, read-out: Dutasteride Solubility): 1990 µg/mL (≈ 3.77 mM)
- solubility at 24 h ([2]; in Poloxamer 124, read-out: Dutasteride Solubility): 1120 µg/mL (≈ 2.12 mM)
- solubility at 24 h ([2]; in Polysorbate 60, read-out: Dutasteride Solubility): 1770 µg/mL (≈ 3.35 mM)
- solubility at 24 h ([2]; in Polysorbate 80, read-out: Dutasteride Solubility): 1360 µg/mL (≈ 2.57 mM)
SMILES: C[C@]12C=CC(=O)N[C@@H]1CC[C@@H]1[C@@H]2CC[C@]2(C)[C@@H](C(=O)Nc3cc(C(F)(F)F)ccc3C(F)(F)F)CC[C@@H]12 [Dutasteride, 17β-N-(2,5-bis(trifluoromethyl))phenylcarbomoyl-4-aza-5α-androst-1-en-3-one]

- Solubility of Tadalafil ([1]; in Glyceryl caprylate/caprate): 4130 µg/mL
- Solubility of Tadalafil ([1]; in Polyoxyl 6 apricot kernel oil): 1120 µg/mL
- fold greater solubility than the other oils ([1]; in glyceryl caprylate/caprate and propylene glycol monocaprylate versus castor oil, soybean oil, polyoxyl 6 apricot kernel oil): ≥ 4 fold
- solubility at 24 h ([1]; in Propylene glycol monocaprylate, read-out: Solubility of Tadalafil): 4610 µg/mL (≈ 11.8 mM)
- solubility according to surfactants (in words) [2]: high solubility
- solubility at 24 h ([2]; in PEG 6 glyceryl carpylate/caprate, read-out: Tadalafil Solubility): 9130 µg/mL (≈ 23.4 mM)
- solubility at 24 h ([2]; in PEG 8 caprylic/capric glyceride, read-out: Tadalafil Solubility): 8810 µg/mL (≈ 22.6 mM)
- solubility at 24 h ([2]; in PEG 35 castor oil, read-out: Tadalafil Solubility): 8100 µg/mL (≈ 20.8 mM)
- solubility at 24 h ([2]; in Poloxamer 124, read-out: Tadalafil Solubility): 6230 µg/mL (≈ 16 mM)
- solubility at 24 h ([2]; in Polysorbate 60, read-out: Tadalafil Solubility): 10700 µg/mL (≈ 27.6 mM)
- solubility at 24 h ([2]; in Polysorbate 80, read-out: Tadalafil Solubility): 9650 µg/mL (≈ 24.8 mM)
SMILES: CN1CC(=O)N2[C@H](c3ccc4c(c3)OCO4)c3[nH]c4ccccc4c3C[C@@H]2C1=O [Tadalafil, 6R-trans-6-(1,3-benzodioxol-5-yl)-2,3,6,7,12,12a-hexahydro-2-methyl-pyrazino [1′,2′:1,6]pyrido[3,4-b]indole-1,4-dione]
